Reference: ChEMBL document CHEMBL5726800, “Indazole and azaindazole Btk inhibitors” (2019)

What was measured:
[1] = biological target: T1, Tyrosine-protein kinase BTK (Homo sapiens, UniProt Q06187); assay: 25P Btk Enzyme Activity Assay: Btk enzymatic activity was determined with the LANCE (Lanthanide Chelate Excite) TR-FRET (lime-resolved fluorescence resonance energy transfer) assay. […] To each well of a black non-binding surface Corning 384-well microplate (Corning Catalog #3820), 5 nL of compound (2000 fold dilution in final assay volume of 10 μL) was dispensed, followed by the addition of 7.5 μL of 1× kinase buffer (50 mM Hepes 7.5, 10 mM MgCl2, 0.01% Brij-35, 1 mM EGTA, 0.05% BSA and 1 mM DTT) containing 26.67 pg/μL (266.7 pM) of 25P Btk enzyme (recombinant protein from baculovirus-transfected Sf9 cells: full-length Btk; MW=79378 Da). Following a 60 minute compound and enzyme incubation, each reaction was initiated by the addition of 2.5 μL 1× kinase buffer containing 8 μM biotinylated “A5” peptide (Biotin-EQEDEPEGDYFEWLE-NH2), and 100 μM ATP. The final reaction in each well of 10 consists of 200 pM 25P Btk, 2 μM biotin-A5-peptide, and 25 μM ATP. Phosphorylation reactions were allowed to proceed for 120 minutes. Reactions were immediately quenched by the addition of 20 uL of 1× quench buffer (15 mM EDTA, 25 mM Hepes 7.3, and 0.1% Triton X-100) containing detection reagents (0.626 nM of LANCE-Eu-W1024-anti-phosphoTyrosine antibody, PerkinElmer and 86.8 nM of Streptavidin-conjugated Dylight 650, Dyomics/ThermoFisher Scientific). […]
[2] = biological target: T1, Tyrosine-protein kinase BTK; assay: 100P Btk Enzyme Activity Assay: Btk enzymatic activity was determined with the LANCE (Lanthanide Chelate Excite) TR-FRET (lime-resolved fluorescence resonance energy transfer) assay. […] To each well of a black non-binding surface Corning 384-well microplate (Corning Catalog #3820), 5 nL of compound (2000 fold dilution in final assay volume of 10 μL) was dispensed, followed by the addition of 7.5 μL of 1× kinase buffer (50 mM Hepes 7.5, 10 mM MgCl2, 0.01% Brij-35, 1 mM EGTA, 0.05% BSA & 1 mM DTT) containing 13.3 pg/μL (133.3 pM) of 100P Btk enzyme (recombinant protein from baculovirus-transfected Sf9 cells: full-length Btk; MW=79378 Da). Following a 60 minute compound and enzyme incubation, each reaction was initiated by the addition of 2.5 μL 1× kinase buffer containing 8 μM biotinylated “A5” peptide (Biotin-EQEDEPEGDYFEWLE-NH2) (SEQ.ID.NO.: 1) and 100 μM ATP. The final reaction in each well of 10 consists of 100 pM 100P Btk, 2 μM biotin-A5-peptide, and 25 μM ATP. Phosphorylation reactions were allowed to proceed for 45 minutes. Reactions were immediately quenched by the addition of 20 uL of 1× quench buffer (15 mM EDTA, 25 mM Hepes 7.3, and 0.1% Triton X-100) containing detection reagents (0.626 nM of LANCE-Eu-W1024-anti-phosphoTyrosine antibody, PerkinElmer and 86.8 nM of Streptavidin-conjugated Dylight 650, Dyomics/ThermoFisher Scientific). […]

T1 sequence (Q06187 whole entry): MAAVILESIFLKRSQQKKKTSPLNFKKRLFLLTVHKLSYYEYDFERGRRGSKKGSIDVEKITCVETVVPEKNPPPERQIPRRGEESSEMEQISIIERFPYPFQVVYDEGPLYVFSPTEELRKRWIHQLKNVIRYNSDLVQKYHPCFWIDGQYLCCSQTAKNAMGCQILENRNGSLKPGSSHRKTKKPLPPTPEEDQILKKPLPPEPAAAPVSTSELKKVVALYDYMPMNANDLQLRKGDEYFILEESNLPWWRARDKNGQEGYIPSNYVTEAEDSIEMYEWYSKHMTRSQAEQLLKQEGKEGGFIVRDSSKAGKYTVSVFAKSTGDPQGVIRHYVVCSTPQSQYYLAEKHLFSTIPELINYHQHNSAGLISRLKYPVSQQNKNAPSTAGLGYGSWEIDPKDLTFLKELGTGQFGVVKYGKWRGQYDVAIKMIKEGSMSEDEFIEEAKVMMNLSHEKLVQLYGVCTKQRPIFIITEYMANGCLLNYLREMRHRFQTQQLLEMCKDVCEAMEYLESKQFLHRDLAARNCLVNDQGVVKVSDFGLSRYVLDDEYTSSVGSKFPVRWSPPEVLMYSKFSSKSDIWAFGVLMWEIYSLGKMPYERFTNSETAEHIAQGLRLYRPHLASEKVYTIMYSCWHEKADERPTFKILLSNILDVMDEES

With `Cc1c(NC(=O)c2ccc(C(C)(C)C)cc2F)cccc1-c1cc(-c2cnn(C)c2)c2[nH]nc(N)c2c1` the IC50 [1] was 23.8 nM and the IC50 [2] was at least 1000 nM.
